Columns and labels:
IKZF1 = target: T1, IKZF1 (Homo sapiens, UniProt Q13422+Q96SW2); test: Western-blot assay of substrate protein degradation in hPBMCs, IKZF1; assay type: cell-based; settings: 24 hours of compound treatment, compounds tested at 50 nM and 500 nM (concentration of the table not stated)
T1 construct: endogenous in cells; host or cells: hPBMCs (Milecell Biotechnologies)

[1] = system: Human acute T lymphocytic leukemia cells (Molt-4); test: Tumor cell proliferation inhibition (CellTiter-Meiluncell Luminescent Cell Viability Assay), Molt-4; settings: MOLT-4, 96 h, read-out: inhibitory activity (IC50, nM) against tumor cells proliferation, Molt 4
MM.1R = test: Tumor cell proliferation inhibition (CellTiter-Meiluncell Luminescent Cell Viability Assay), MM.1R; settings: Homo sapiens, 96 h, read-out: inhibitory activity (IC50, nM) against tumor cells proliferation, MM.1R
MGC803 = test: Tumor cell proliferation inhibition (CellTiter-Meiluncell Luminescent Cell Viability Assay), MGC803; settings: Homo sapiens, MGC-803, 96 h, read-out: inhibitory activity (IC50, nM) against tumor cells proliferation, MGC803
Experimental: (§1) The tumor cells used herein were cultured in a cell culture medium listed in table 2 at 37°C in an incubator with 5% CO2. Prior to experimentation, all cell lines used were correctly identified by STR profiling, and tested negative for mycoplasma contamination using a mycoplasma detection kit through routine screenings.
On the following day, the test compounds of the present disclosure were subjected to serial dilution. […] Subsequently, 0.5 µL of the test compound dilution was transferred into the 96-well plate containing the cells, with each well containing 100 µL of cell culture medium. […] Into the 96-well plate, the diluted test compounds and corresponding detection reagents were added, resulting in final test compound concentrations of 500 nM and 10 nM, respectively.
(§2) After the cells were treated with the compounds of the present disclosure for a specified period (the treatment durations were shown in Table 3), the cell viability assay reagent was added to the culture medium according to the kit's instructions to determine cell viability. […] All controls were treated using the same procedure as the compounds of the present disclosure. The growth inhibition curves for the compounds of the present disclosure were plotted using Prism GraphPad software, and the IC50 values were calculated therefrom.

[2] = system: Human breast cancer cells (MDA-MB-231); test: Tumor cell proliferation inhibition (CellTiter-Meiluncell Luminescent Cell Viability Assay), MDA-MB-231; settings: MDA-MB-231, 96 h, read-out: inhibitory activity (IC50, nM) against tumor cells proliferation, MDA-MB-231
CAL-62 = test: Tumor cell proliferation inhibition (CellTiter-Meiluncell Luminescent Cell Viability Assay), CAL-62; settings: Homo sapiens, CAL-62, 96 h, read-out: inhibitory activity (IC50, nM) against tumor cells proliferation, CAL-62
Experimental: as §1
(§3) On the following day, the test compounds of the present disclosure were subjected to serial dilution. […] Subsequently, 0.5 µL of the test compound dilution was transferred into the 96-well plate containing the cells, with each well containing 100 µL of cell culture medium. […] Into the 96-well plate, the diluted test compounds and corresponding detection reagents were added, resulting in final test compound concentrations of 500 nM and 10 nM, respectively. The experimental procedure is described below using the diluted 2 µM test compound as an example.
as §2

SW620 = test: Tumor cell proliferation inhibition (CellTiter-Meiluncell Luminescent Cell Viability Assay), SW620; settings: Homo sapiens, SW-620, 96 h, read-out: inhibitory activity (IC50, nM) against tumor cells proliferation, SW620
Experimental: as §1, §3, §2

IKZF3 = target: T2, IKZF3 (Homo sapiens, UniProt Q96SW2+Q9UKT9); test: Western-blot assay of substrate protein degradation in hPBMCs, IKZF3; assay type: cell-based; settings: 24 hours of compound treatment, compounds tested at 50 nM and 500 nM (concentration of the table not stated)
T2 construct: endogenous in cells; host or cells: hPBMCs (Milecell Biotechnologies)

Jurkat = test: Tumor cell proliferation inhibition (CellTiter-Meiluncell Luminescent Cell Viability Assay), Jurkat; settings: Homo sapiens, 96 h, read-out: inhibitory activity (IC50, nM) against tumor cells proliferation, Jurkat
[3] = target: T3, human Cereblon WT GST-tagged protein (Homo sapiens, UniProt Q96SW2); test: CRBN-binding affinity by HTRF (CEREBLON BINDING kit); settings: HTRF inhibitory activity, CEREBLON BINDING kit; read-out: HTRF IC50
T3 construct: purchased CISBIO 64BDCRBNPEH

WEE1 = target: T4, WEE1 (Homo sapiens, UniProt P30291+Q96SW2); test: Western-blot assay of substrate protein degradation in hPBMCs, WEE1; assay type: cell-based; settings: 24 hours of compound treatment, compounds tested at 50 nM and 500 nM (concentration of the table not stated)
T4 construct: endogenous in cells; host or cells: hPBMCs (Milecell Biotechnologies)

Vcap = test: Tumor cell proliferation inhibition (CellTiter-Meiluncell Luminescent Cell Viability Assay), Vcap; settings: Homo sapiens, 96 h, read-out: inhibitory activity (IC50, nM) against tumor cells proliferation, Vcap
SR = test: Tumor cell proliferation inhibition (CellTiter-Meiluncell Luminescent Cell Viability Assay), SR; settings: Homo sapiens, 96 h, read-out: inhibitory activity (IC50, nM) against tumor cells proliferation, SR
NCI-H1975 = test: Tumor cell proliferation inhibition (CellTiter-Meiluncell Luminescent Cell Viability Assay), NCI-H1975; settings: Homo sapiens, NCI-H1975, 96 h, read-out: inhibitory activity (IC50, nM) against tumor cells proliferation, H1975
CK1α = target: T5, CK1α (Homo sapiens, UniProt P48729+Q96SW2); test: Western-blot assay of substrate protein degradation in hPBMCs, CK1α; assay type: cell-based; settings: 24 hours of compound treatment, compounds tested at 50 nM and 500 nM (concentration of the table not stated)
T5 construct: endogenous in cells; host or cells: hPBMCs (Milecell Biotechnologies)

GSPT1 = target: T6, GSPT1 (Homo sapiens, UniProt P15170+Q96SW2); test: Western-blot assay of substrate protein degradation in hPBMCs, GSPT1; assay type: cell-based; settings: 24 hours of compound treatment, compounds tested at 50 nM and 500 nM (concentration of the table not stated)
T6 construct: endogenous in cells; host or cells: hPBMCs (Milecell Biotechnologies)

IKZF2 = target: T7, IKZF2 (Homo sapiens, UniProt Q96SW2+Q9UKS7); test: Western-blot assay of substrate protein degradation in hPBMCs, IKZF2; assay type: cell-based; settings: 24 hours of compound treatment, compounds tested at 50 nM and 500 nM (concentration of the table not stated)
T7 construct: endogenous in cells; host or cells: hPBMCs (Milecell Biotechnologies)

CCRF-CEM = test: Tumor cell proliferation inhibition (CellTiter-Meiluncell Luminescent Cell Viability Assay), CCRF-CEM; settings: Homo sapiens, 96 h, read-out: inhibitory activity (IC50, nM) against tumor cells proliferation, CCRF-CEM

T1 sequence (Q13422 whole entry): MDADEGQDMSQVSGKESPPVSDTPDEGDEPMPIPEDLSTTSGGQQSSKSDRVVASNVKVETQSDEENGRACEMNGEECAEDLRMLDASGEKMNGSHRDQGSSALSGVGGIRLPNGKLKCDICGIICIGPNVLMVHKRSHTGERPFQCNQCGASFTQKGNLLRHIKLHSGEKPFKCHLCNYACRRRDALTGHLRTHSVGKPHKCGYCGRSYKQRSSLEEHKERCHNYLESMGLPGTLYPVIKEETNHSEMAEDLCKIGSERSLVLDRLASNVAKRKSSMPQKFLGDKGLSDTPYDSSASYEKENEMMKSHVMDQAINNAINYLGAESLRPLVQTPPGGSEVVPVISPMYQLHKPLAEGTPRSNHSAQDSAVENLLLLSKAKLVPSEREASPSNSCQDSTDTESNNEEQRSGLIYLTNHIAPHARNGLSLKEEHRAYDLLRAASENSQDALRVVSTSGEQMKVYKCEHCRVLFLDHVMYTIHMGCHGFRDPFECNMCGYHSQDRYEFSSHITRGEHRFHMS
T1 sequence (Q96SW2 whole entry): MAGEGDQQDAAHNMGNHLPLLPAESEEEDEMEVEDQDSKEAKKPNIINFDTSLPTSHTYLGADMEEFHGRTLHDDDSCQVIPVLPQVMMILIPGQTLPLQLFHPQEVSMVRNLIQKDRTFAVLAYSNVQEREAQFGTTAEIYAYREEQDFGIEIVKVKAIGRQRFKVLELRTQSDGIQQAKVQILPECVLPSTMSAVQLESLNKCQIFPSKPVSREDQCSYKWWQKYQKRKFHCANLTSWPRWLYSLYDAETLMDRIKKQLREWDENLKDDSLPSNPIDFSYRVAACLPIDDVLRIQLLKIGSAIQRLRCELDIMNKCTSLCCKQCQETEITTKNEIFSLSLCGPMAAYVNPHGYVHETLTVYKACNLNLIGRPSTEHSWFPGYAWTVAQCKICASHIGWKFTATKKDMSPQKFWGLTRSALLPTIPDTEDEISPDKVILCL
T1 sequence (Q16531 whole entry partner): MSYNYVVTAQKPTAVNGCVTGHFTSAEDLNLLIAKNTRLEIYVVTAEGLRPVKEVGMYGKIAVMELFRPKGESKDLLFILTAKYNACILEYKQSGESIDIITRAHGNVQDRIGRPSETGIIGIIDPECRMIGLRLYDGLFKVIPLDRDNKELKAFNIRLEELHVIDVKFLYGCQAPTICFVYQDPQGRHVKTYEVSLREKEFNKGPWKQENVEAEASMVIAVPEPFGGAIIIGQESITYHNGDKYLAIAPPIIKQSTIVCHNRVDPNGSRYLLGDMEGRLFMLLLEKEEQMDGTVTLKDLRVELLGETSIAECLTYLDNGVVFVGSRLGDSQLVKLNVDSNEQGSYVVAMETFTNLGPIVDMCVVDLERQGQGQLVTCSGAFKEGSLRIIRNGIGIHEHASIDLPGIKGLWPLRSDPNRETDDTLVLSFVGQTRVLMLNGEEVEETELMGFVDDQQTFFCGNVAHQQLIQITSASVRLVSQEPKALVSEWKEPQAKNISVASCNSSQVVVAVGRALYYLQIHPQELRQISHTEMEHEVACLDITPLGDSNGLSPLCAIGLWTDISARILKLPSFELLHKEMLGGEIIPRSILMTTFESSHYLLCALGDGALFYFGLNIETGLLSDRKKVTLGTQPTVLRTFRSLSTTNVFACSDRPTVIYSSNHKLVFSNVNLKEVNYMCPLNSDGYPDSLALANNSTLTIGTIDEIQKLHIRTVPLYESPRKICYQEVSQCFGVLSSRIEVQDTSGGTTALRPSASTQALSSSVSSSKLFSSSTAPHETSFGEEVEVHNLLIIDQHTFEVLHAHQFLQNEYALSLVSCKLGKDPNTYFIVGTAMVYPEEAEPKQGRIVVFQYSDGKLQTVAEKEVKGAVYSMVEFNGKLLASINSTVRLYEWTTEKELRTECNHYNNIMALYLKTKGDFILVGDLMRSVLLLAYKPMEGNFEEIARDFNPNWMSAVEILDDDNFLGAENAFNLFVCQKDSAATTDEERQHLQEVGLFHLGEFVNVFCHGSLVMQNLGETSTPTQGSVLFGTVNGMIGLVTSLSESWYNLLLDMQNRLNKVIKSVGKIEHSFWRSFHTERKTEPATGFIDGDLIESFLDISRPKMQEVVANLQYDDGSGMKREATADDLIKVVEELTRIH
T2 sequence (Q9UKT9 whole entry): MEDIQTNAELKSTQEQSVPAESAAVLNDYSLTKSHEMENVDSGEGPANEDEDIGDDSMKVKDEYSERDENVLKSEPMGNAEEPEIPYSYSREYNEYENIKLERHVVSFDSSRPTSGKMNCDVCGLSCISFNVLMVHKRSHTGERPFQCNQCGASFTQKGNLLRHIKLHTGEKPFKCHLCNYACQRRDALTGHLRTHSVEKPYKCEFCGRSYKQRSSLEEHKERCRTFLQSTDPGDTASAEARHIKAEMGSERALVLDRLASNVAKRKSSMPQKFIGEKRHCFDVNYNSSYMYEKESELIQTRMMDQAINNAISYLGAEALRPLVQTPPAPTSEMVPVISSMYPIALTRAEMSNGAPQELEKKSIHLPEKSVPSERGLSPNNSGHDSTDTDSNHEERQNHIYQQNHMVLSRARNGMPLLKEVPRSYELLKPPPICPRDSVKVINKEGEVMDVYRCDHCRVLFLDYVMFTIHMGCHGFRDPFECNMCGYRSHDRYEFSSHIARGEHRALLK
T2 sequence (Q96SW2 whole entry): as the sequence (Q96SW2 whole entry) above
T2 sequence (Q16531 whole entry partner): as the sequence (Q16531 whole entry partner) above
T4 sequence (P30291 whole entry): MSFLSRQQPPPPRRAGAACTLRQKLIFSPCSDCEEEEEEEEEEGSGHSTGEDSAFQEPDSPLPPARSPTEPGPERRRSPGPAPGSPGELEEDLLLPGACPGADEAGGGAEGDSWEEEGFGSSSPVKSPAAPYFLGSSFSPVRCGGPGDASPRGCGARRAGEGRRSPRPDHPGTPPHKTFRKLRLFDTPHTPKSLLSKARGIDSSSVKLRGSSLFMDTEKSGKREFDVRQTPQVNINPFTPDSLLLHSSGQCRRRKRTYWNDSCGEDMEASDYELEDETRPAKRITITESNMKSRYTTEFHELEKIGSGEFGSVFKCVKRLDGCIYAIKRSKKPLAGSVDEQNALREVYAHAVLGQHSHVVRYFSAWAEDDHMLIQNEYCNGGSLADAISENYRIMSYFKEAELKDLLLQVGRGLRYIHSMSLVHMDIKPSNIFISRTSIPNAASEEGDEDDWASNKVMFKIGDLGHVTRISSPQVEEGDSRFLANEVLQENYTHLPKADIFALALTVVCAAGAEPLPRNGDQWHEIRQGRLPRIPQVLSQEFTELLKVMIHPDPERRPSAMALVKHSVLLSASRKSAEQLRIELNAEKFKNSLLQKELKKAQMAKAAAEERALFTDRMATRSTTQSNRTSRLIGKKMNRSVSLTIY
T4 sequence (Q96SW2 whole entry): as the sequence (Q96SW2 whole entry) above
T4 sequence (Q16531 whole entry partner): as the sequence (Q16531 whole entry partner) above
T6 sequence (P15170 whole entry): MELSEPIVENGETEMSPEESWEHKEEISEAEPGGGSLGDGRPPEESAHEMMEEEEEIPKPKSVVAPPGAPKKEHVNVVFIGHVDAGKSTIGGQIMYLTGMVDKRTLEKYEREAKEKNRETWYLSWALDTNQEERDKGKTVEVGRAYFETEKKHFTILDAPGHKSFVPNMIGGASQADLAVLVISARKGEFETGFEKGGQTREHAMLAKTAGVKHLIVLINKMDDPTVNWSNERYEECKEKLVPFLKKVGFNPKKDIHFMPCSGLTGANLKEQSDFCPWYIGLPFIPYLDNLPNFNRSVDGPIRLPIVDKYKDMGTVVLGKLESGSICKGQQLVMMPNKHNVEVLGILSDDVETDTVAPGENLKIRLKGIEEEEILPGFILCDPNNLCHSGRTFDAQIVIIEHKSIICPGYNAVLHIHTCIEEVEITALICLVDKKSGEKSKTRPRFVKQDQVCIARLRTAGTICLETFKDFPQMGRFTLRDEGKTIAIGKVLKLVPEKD
T6 sequence (Q96SW2 whole entry): as the sequence (Q96SW2 whole entry) above
T6 sequence (Q16531 whole entry partner): as the sequence (Q16531 whole entry partner) above
T3 sequence (Q96SW2 whole entry): as the sequence (Q96SW2 whole entry) above
T7 sequence (Q9UKS7 whole entry): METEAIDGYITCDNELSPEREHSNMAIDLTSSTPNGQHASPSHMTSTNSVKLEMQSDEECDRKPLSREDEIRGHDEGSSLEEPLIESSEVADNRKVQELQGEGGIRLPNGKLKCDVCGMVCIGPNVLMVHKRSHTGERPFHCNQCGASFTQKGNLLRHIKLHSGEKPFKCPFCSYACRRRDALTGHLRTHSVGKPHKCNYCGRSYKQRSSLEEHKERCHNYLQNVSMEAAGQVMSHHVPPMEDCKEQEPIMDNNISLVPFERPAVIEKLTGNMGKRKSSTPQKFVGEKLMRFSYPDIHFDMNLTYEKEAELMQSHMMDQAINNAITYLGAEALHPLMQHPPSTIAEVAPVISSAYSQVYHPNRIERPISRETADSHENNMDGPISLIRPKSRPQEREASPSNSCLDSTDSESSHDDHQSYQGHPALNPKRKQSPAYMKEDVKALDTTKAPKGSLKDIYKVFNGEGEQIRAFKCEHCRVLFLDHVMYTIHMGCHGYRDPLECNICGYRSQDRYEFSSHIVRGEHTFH
T7 sequence (Q96SW2 whole entry): as the sequence (Q96SW2 whole entry) above
T7 sequence (Q16531 whole entry partner): as the sequence (Q16531 whole entry partner) above

O=C1CCC(N2Cc3cc(CN4CCN(c5ccc(Cl)c(Cl)c5)CC4)ccc3C2=O)C(=O)N1 (stereo not drawn) [GT-04437, 3-(5-((4-(3,4-dichlorophenyl)piperazin-1-yl)methyl)-1-oxoisoindolin-2-yl)piperidine-2,6-dione]
IKZF 1 substrate protein remaining % (IKZF1): A (0% ≤ substrate protein remaining % ≤ 80%) | IC50 [1]: 1 to 5 nM | IC50 (MM.1R): 5 to 10 nM | IC50 (MGC803): 50 to 100 nM | IC50 [2]: 100 to 500 nM | IC50 (CAL-62): 10 to 50 nM | IC50 (SW620): 50 to 100 nM | IKZF3 substrate protein remaining % (IKZF3): A (0% ≤ substrate protein remaining % ≤ 80%) | IC50 (Jurkat): 1 to 5 nM | IC50 [3]: 500 to 1000 nM | Weel substrate protein remaining % (WEE1): A (0% ≤ substrate protein remaining % ≤ 80%) | IC50 (Vcap): 10 to 50 nM | IC50 (SR): 100 to 500 nM | IC50 (NCI-H1975): 50 to 100 nM | CK1a substrate protein remaining % (CK1α): A (0% ≤ substrate protein remaining % ≤ 80%) | GSPT1 substrate protein remaining % (GSPT1): A (0% ≤ substrate protein remaining % ≤ 80%) | IKZF2 substrate protein remaining % (IKZF2): A (0% ≤ substrate protein remaining % ≤ 80%) | IC50 (CCRF-CEM): 5 to 10 nM

Cc1cc(Cl)cc(N2CCN(Cc3ccc4c(c3)CN(C3CCC(=O)NC3=O)C4=O)CC2)n1 (stereo not drawn) [GT-04491, 3-(5-((4-(4-chloro-6-methylpyridin-2-yl)piperazin-1-yl)methyl)-1-oxoisoindolin-2-yl)piperidine-2,6-dione]
IKZF 1 substrate protein remaining % (IKZF1): B (80%< substrate protein remaining %≤ 100%) | IC50 [1]: 5 to 10 nM | IC50 (MM.1R): 10 to 50 nM | IC50 (MGC803): 500 to 1000 nM | IC50 [2]: 100 to 500 nM | IC50 (CAL-62): 10 to 50 nM | IC50 (SW620): 100 to 500 nM | IKZF3 substrate protein remaining % (IKZF3): B (80%< substrate protein remaining %≤ 100%) | IC50 (Jurkat): 5 to 10 nM | IC50 [3]: 500 to 1000 nM | Weel substrate protein remaining % (WEE1): B (80%< substrate protein remaining %≤ 100%) | IC50 (Vcap): 10 to 50 nM | IC50 (SR): 100 to 500 nM | IC50 (NCI-H1975): 100 to 500 nM | CK1a substrate protein remaining % (CK1α): A (0% ≤ substrate protein remaining % ≤ 80%) | GSPT1 substrate protein remaining % (GSPT1): A (0% ≤ substrate protein remaining % ≤ 80%) | IKZF2 substrate protein remaining % (IKZF2): A (0% ≤ substrate protein remaining % ≤ 80%) | IC50 (CCRF-CEM): 5 to 10 nM

O=C1CCC(N2Cc3cc(CN4CCN(c5cc(F)cc(F)c5)CC4)ccc3C2=O)C(=O)N1 (stereo not drawn) [GT-04496, 3-(5-((4-(3,5-difluorophenyl)piperazin-1-yl)methyl)-1-oxoisoindolin-2-yl)piperidine-2,6-dione]
IKZF 1 substrate protein remaining % (IKZF1): B (80%< substrate protein remaining %≤ 100%) | IC50 [1]: 5 to 10 nM | IC50 (MM.1R): 10 to 50 nM | IC50 (MGC803): 100 to 500 nM | IC50 [2]: 100 to 500 nM | IC50 (CAL-62): 10 to 50 nM | IC50 (SW620): 100 to 500 nM | IKZF3 substrate protein remaining % (IKZF3): B (80%< substrate protein remaining %≤ 100%) | IC50 (Jurkat): 5 to 10 nM | IC50 [3]: 500 to 1000 nM | Weel substrate protein remaining % (WEE1): B (80%< substrate protein remaining %≤ 100%) | IC50 (Vcap): 10 to 50 nM | IC50 (SR): 100 to 500 nM | IC50 (NCI-H1975): 100 to 500 nM | CK1a substrate protein remaining % (CK1α): A (0% ≤ substrate protein remaining % ≤ 80%) | GSPT1 substrate protein remaining % (GSPT1): A (0% ≤ substrate protein remaining % ≤ 80%) | IKZF2 substrate protein remaining % (IKZF2): A (0% ≤ substrate protein remaining % ≤ 80%) | IC50 (CCRF-CEM): 5 to 10 nM

O=C1CCC(N2Cc3cc(CN4CCN(c5ccccc5Br)CC4)ccc3C2=O)C(=O)N1 (stereo not drawn) [GT-04456, 3-(5-((4-(2-bromophenyl)piperazin-1-yl)methyl)-1-oxoisoindolin-2-yl)piperidine-2,6-dione]
IKZF 1 substrate protein remaining % (IKZF1): A (0% ≤ substrate protein remaining % ≤ 80%) | IC50 [1]: 10 to 50 nM | IC50 (MM.1R): 10 to 50 nM | IC50 (MGC803): 100 to 500 nM | IC50 [2]: 100 to 500 nM | IC50 (CAL-62): 10 to 50 nM | IC50 (SW620): 100 to 500 nM | IKZF3 substrate protein remaining % (IKZF3): A (0% ≤ substrate protein remaining % ≤ 80%) | IC50 (Jurkat): 5 to 10 nM | IC50 [3]: 500 to 1000 nM | Weel substrate protein remaining % (WEE1): A (0% ≤ substrate protein remaining % ≤ 80%) | IC50 (Vcap): 50 to 100 nM | IC50 (SR): 500 to 1000 nM | IC50 (NCI-H1975): 100 to 500 nM | CK1a substrate protein remaining % (CK1α): A (0% ≤ substrate protein remaining % ≤ 80%) | GSPT1 substrate protein remaining % (GSPT1): A (0% ≤ substrate protein remaining % ≤ 80%) | IKZF2 substrate protein remaining % (IKZF2): A (0% ≤ substrate protein remaining % ≤ 80%) | IC50 (CCRF-CEM): 5 to 10 nM

O=C1CCC(N2Cc3cc(CN4CCN(c5ccc(Cl)cc5)CC4)ccc3C2=O)C(=O)N1 (stereo not drawn) [GT-04455, 3-(5-((4-(4-chlorophenyl)piperazin-1-yl)methyl)-1-oxoisoindolin-2-yl)piperidine-2,6-dione]
IKZF 1 substrate protein remaining % (IKZF1): A (0% ≤ substrate protein remaining % ≤ 80%) | IC50 [1]: 1 to 5 nM | IC50 (MM.1R): 5 to 10 nM | IC50 (MGC803): 50 to 100 nM | IC50 [2]: 50 to 100 nM | IC50 (CAL-62): 5 to 10 nM | IC50 (SW620): 10 to 50 nM | IKZF3 substrate protein remaining % (IKZF3): A (0% ≤ substrate protein remaining % ≤ 80%) | IC50 (Jurkat): 1 to 5 nM | IC50 [3]: 500 to 1000 nM | Weel substrate protein remaining % (WEE1): A (0% ≤ substrate protein remaining % ≤ 80%) | IC50 (Vcap): 10 to 50 nM | IC50 (SR): 100 to 500 nM | IC50 (NCI-H1975): 50 to 100 nM | CK1a substrate protein remaining % (CK1α): A (0% ≤ substrate protein remaining % ≤ 80%) | GSPT1 substrate protein remaining % (GSPT1): A (0% ≤ substrate protein remaining % ≤ 80%) | IKZF2 substrate protein remaining % (IKZF2): A (0% ≤ substrate protein remaining % ≤ 80%) | IC50 (CCRF-CEM): 1 to 5 nM

O=C1CCC(N2Cc3cc(CN4CCN(c5ccc(F)cc5)CC4)ccc3C2=O)C(=O)N1 (stereo not drawn) [GT-04453, 3-(5-((4-(4-fluorophenyl)piperazin-1-yl)methyl)-1-oxoisoindolin-2-yl)piperidine-2,6-dione]
IKZF 1 substrate protein remaining % (IKZF1): A (0% ≤ substrate protein remaining % ≤ 80%) | IC50 [1]: 10 to 50 nM | IC50 (MM.1R): 10 to 50 nM | IC50 (MGC803): 100 to 500 nM | IC50 [2]: 100 to 500 nM | IC50 (CAL-62): 10 to 50 nM | IC50 (SW620): 100 to 500 nM | IKZF3 substrate protein remaining % (IKZF3): A (0% ≤ substrate protein remaining % ≤ 80%) | IC50 (Jurkat): 5 to 10 nM | IC50 [3]: 1000 to 1500 nM | Weel substrate protein remaining % (WEE1): A (0% ≤ substrate protein remaining % ≤ 80%) | IC50 (Vcap): 50 to 100 nM | IC50 (SR): 500 to 1000 nM | IC50 (NCI-H1975): 100 to 500 nM | CK1a substrate protein remaining % (CK1α): A (0% ≤ substrate protein remaining % ≤ 80%) | GSPT1 substrate protein remaining % (GSPT1): A (0% ≤ substrate protein remaining % ≤ 80%) | IKZF2 substrate protein remaining % (IKZF2): A (0% ≤ substrate protein remaining % ≤ 80%) | IC50 (CCRF-CEM): 5 to 10 nM

From patent publication EP4745137A1 (Gluetacs Therapeutics (Shanghai) Co., Ltd., priority 2023, dated 2025)
